Results published in US20190269705A1, “METHODS AND MATERIALS FOR TREATING GRAFT VERSUS HOST DISEASE” (Regents of the University of Minnesota, priority 2017, published 2019).
Entries after “also recorded” stand apart in the source; their conditions may differ.

Tests used:
[1] = system: Th17 cells; assay: CD4 T cells in Th17 skewing conditions, flow cytometry
[2] = system: Th1 cells; assay: CD4 T cells in Th1 skewing conditions, flow cytometry
[3] = system: cGVHD mice; assay: In vivo chronic graft versus host disease (cGVHD) treatment; design: species or system mouse; conditions: treatment Day 28-56 after transplant; for pulmonary function: DON 1.6 mg/kg EOD IP, metformin 150 mg/kg daily IP
Protocol: Induction of Graft vs Host Disease (cGVHD) was performed as described elsewhere (see, e.g., Panoskaltsis-Mortari et al., 2007 Am J Respir Crit Care Med. 176(7):713-723). Briefly, mice were lethally irradiated the day before bone marrow (BM) transplant. Mice were dosed with cyclophosphamide (Cytoxan, Bristol Myers Squibb, Seattle Wash.) at 120 mg/kg/day on days −3 and −2. Recipient irradiated mice were transplanted via caudal vein with 10×10^6 T-cell depleted allogeneic marrow with 73.5×10^3 purified splenic T cells from WT or GLS KO mice, or control (no CD4+ T cells). Mice were assessed for lung elasticity, resistance, and compliance at Day 28 by whole body plethysmography using the Flexivent system (Scireq, Montreal, PQ, Canada). Histological assessment of GVHD was assessed as described elsewhere (see, e.g., Blazar et al., 1998 Blood 92(10):3949-3959).
6-Diazo-5-Oxo-L-Norleucine (DON) was administered to mice conditioned with cyclophosphamide (Cytoxan, Bristol Myers Squibb, Seattle Wash.) and total body irradiation.
To determine if inhibiting GLS can improve cGVHD, DON (with or without metformin) was administered to mice that were transplanted with WT T cell depleted bone marrow with WT purified splenic T cells beginning on day 28 after transplant.

[4] = system: stimulated T cells; assay: Oxygen Consumption Rate (Seahorse) of stimulated CD4 T cells; format: cell-based, mouse; conditions: CD4 cells stimulated on CD3/CD28; 1 μM CB839, 5 μM UK5099 injected separately or in combination
Protocol: Experiments were carried out on Agilent Seahorse XF96 bioanalyzer (Agilent). Briefly, wild type CD4+ cells were isolated as previous and activated for 3 days on CD3/CD28 as previously described, or skewed to Th1 and Th17 subsets as described above. T cells were spun onto XF96 Cell-Tak (BD Bioscience, Cat #: 354240) coated plates and rested in Seahorse XF RPMI 1640 media supplemented with glutamine, sodium pyruvate, and glucose. For immediate metabolic response, CB839 and UK5099 were injected separately or in combination, and OCR and ECAR measured.
Experiments were carried out on Agilent Seahorse XF96 bioanalyzer (Agilent). Briefly, wild type CD4+ cells were isolated as previous and activated for 3 days on αCD3/CD28 coated plates as previously described, or skewed to Th1 and Th17 subsets as described above. T cells were isolated and spun onto XF96 Cell-Tak (BD Bioscience, Cat #: 354240) coated plates and rested in Seahorse XF RPMI 1640 media supplemented with glutamine, sodium pyruvate, and glucose. For immediate metabolic response, 1 μM CB839 and 5 μM UK5099 (Cat #: PZ0160-5MG) were injected separately or in combination, and OCR and ECAR measured. For activation response, 1 uM CB839 was injected into IL-7 maintained naïve CD4+ T cells in seahorse medium and allowed to incubate for 20 minutes, followed by soluble αCD3/CD28 injection.

[5] = Th17, CB839 + cell-permeable α-KG analog
[6] = Th1, CB839 + 1.5 mM cell-permeable α-KG analog

## COC(=O)CCC(=O)C(=O)OC [DMaKG, dimethyl-2-oxoglutarate]
[1]; [5]
  IL17 production of CB839-treated Th17 cells: unchanged or further decreased
  RORγt of CB839-treated Th17 cells: unchanged or further decreased
[2]; [6]
  IFNγ production of CB839-treated Th1 cells: rectified
  Tbet expression of CB839-treated Th1 cells: rectified
[2]; Th1, CB839 + 1.5 mM cell-permeable α-KG analog, listed as DM2OG
  IFNγ production of CB839-treated Th1 cells: reduced IFNγ production of CB839-treated to control levels
[2]; Th1, α-KG analog alone
  cytokine production in Th1 cells, by itself: did not reduce cytokine production

## [N-]=[N+]=CC(=O)CC[C@H](N)C(=O)O [DON, 6-Diazo-5-Oxo-L-Norleucine]
[3]
  GC B cell frequency: decreased GC B cell frequency; also recorded: decrease GC B cell frequencies; also recorded: reduced GC B cells
  TFH frequency: increased TFH frequency
  TFR frequencies: increased TFR frequencies
  TFR:TFH ratios: improved TFR:TFH ratios
  percentage of lymphocytes: reduced the percentage of lymphocytes; also recorded: reduces lymphocytes
  pulmonary function: improve pulmonary functions

## CCOC(=O)CCNc1cc(N2CCc3ccccc3CC2)nc(-c2ccccn2)n1 [GSKJ4]
[1]; Th17, day five, JMJD3 inhibitor
  cytokine production: increased cytokine production in Th1 but not Th17 cells
[2]; Th1, day five, JMJD3 inhibitor
  cytokine production: increased cytokine production

## CC(=O)N[C@@H](CS)C(=O)O [NAC, N-acetyl cysteine]
[1]; GLS-deficient (CB839) Th17 cells + NAC
  H3K27 trimethylation: restored
[1]; Th17, NAC alone
  expression of IL17: modestly reduced
  expression of RORγt: modestly reduced
[1]; Th17, NAC combined with CB839
  expression of RORγt: partially restored to control levels
  production of IL17: partially restored to control levels
[2]; Th1, NAC alone
  IFNγ secretion: decreasing IFNγ secretion
[2]; Th1, NAC combined with CB839
  production of IFNγ: did not, however, increase
[2]; Th1 cells + NAC
  H3K27 trimethylation: no effect

## N#C/C(=C\c1cn(-c2ccccc2)c2ccccc12)C(=O)O [UK5099]
[4]
  oxygen consumption (T cell respiration): neither UK5099 nor CB839 were sufficient on their own to reduce T cell respiration; also recorded: neither UK5099 nor CB839 were sufficient to reduce T cell respiration alone

## CN(C)C(=N)N=C(N)N [metformin]
[3]
  pulmonary function: improved pulmonary function

## CO[C@H]1C[C@@H]2CC[C@@H](C)[C@@](O)(O2)C(=O)C(=O)N2CCCC[C@H]2C(=O)O[C@H]([C@H](C)C[C@@H]2CC[C@@H](O)[C@H](OC)C2)CC(=O)[C@H](C)/C=C(\C)[C@@H](O)[C@@H](OC)C(=O)[C@H](C)C[C@H](C)/C=C/C=C/C=C/1C [rapamycin]
[2]; rapamycin added on day 3 after activation
  effect on control Th1 cells: no effect
